Source: patent publication US20200123495A1, “COMPOSITION AND METHOD FOR CONTROLLING INSECTS AND MICR[…] PSEUDOMONAS […]” (Academia Sinica, priority 2014, published 2020)

How the values were obtained:
Drosophila melanogaster = settings: previous study, Liu et al. 2010; cited from earlier work
[1] = test system: Xanthomonas oryzae pv. oryzae (Xoo)
[2] = CAS plate assay (removal of iron from the CAS dye); settings: 1.2 and 1.5 mg pyoverdine on CAS agar plates
Experimental: Chrome azurol S (CAS) is a universal method that detects the mobilization of iron, which assays siderphores production. To prepare 100 ml CAS dye, 60.5 mg CAS powder (Sigma) was dissolved in 50 ml distilled water and mixed with 10 ml of 1 mM iron solution (anhydration FeCl3, Alfa Aesar). Then, 40 ml of 72.9 mg HDTMA (Sigma) was added slowly to 60 ml CAS solution with FeCl3 and autoclaved to sterilize. After CAS cool down can be hand held, one-tenth of CAS solution mixed with LP agar medium and immediately poured into plates.
Different concentration of purified pyoverdine was injected into the hole (5 mm) of CAS plates. Plates were incubated at 28° C. for 6 h or until yellow halo appearance.

Row | Compound | mortality in Drosophila larvae (Drosophila melanogaster) | IC50 toward Xoo (inhibition of cell growth) [1] | LD50 against Xoo (lethal dose) [1] | CAS reaction rate [2]
1 | recombinant TccC: TccC gene from P. taiwanensis overexpressed in E. coli (SEQ ID NO:2) | increase the mortality |  |  | 
2 | C[C@@H](O)[C@@H](NC(=O)[C@@H](NC(=O)[C@H](CCCCN)NC(=O)[C@@H](CO)NC(=O)C1CCN=C2C(NC(=O)CCC(=O)O)=Cc3cc(O)c(O)cc3N21)C(O)c1c[nH]cn1)C(=O)N[C@@H](CO)C(=O)N[C@H]1CCCN(O)C1=O (stereo partly drawn) [pyoverdine, Q-DSer-Lys-OHHis-aDThr-Ser-cOHOrn] |  | about 2.035 mg/ml | about 1.98 mg/ml | rapidly detected
